The NIST ThermoML archive (doi:10.1016/j.jct.2007.04.006)
± gives the expanded uncertainty stated by the source.

Experiments:
[1] = 298.15 K, 101.33 kPa, Liquid
[2] = mn = molality of the nth substance listed, in mol/kg; conditions: 101 kPa, Liquid; for speed of sound: Sing-around technique in a fixed-path interferometer

CCO [ethanol]
Conditions | mass density [kg/m3]
[1] | 785.125 ± 0.31

Conditions | speed of sound [m/s]
[1], Sing-around technique in a fixed-path interferometer | 1143.4 ± 1.2

[Br-].[Li+] [lithium bromide] + CO
[2], 298.15 K
Conditions | mass density [kg/m3] | speed of sound [m/s]
m1 = 0.0425 | 789.48 ± 0.3 | 1110.7 ± 1.2
m1 = 0.0588 | 790.553 ± 0.3 | 1111.3 ± 1.2
m1 = 0.0714 | 791.384 ± 0.3 | 1112 ± 1.2
m1 = 0.0903 | 792.602 ± 0.3 | 1112.8 ± 1.2
m1 = 0.1168 | 794.333 ± 0.3 | 1113.9 ± 1.2
m1 = 0.1473 | 796.328 ± 0.3 | 1115.1 ± 1.2
m1 = 0.2089 | 800.289 ± 0.29 | 1117.7 ± 1.2
m1 = 0.2993 | 806.041 ± 0.29 | 1121.1 ± 1.2
m1 = 0.5035 | 818.761 ± 0.28 | 1128.8 ± 1.2
m1 = 0.7097 | 831.385 ± 0.26 | 1136.2 ± 1.2
m1 = 0.9875 | 848.253 ± 0.25 | 1146.1 ± 1.2
m1 = 1.163 | 858.424 ± 0.24 | 1152 ± 1.2
m1 = 1.464 | 876.582 ± 0.22 | 1162.5 ± 1.2
m1 = 1.97 | 905.481 ± 0.19 | 1179.6 ± 1.2
m1 = 2.45 | 933.222 ± 0.17 | 1195.9 ± 1.3
m1 = 3.489 | 989.847 ± 0.12 | 1231.2 ± 1.3

[Br-].[Li+] [lithium bromide] + CC(C)=O
[2], 298.15 K
Conditions | mass density [kg/m3] | speed of sound [m/s]
m1 = 0.0301 | 784.377 ± 0.38 | 1141.5 ± 1.3
m1 = 0.0367 | 785.81 ± 0.32 | 1142.3 ± 1.3
m1 = 0.0486 | 786.228 ± 0.31 | 1142.6 ± 1.3
m1 = 0.0679 | 787.379 ± 0.31 | 1143.1 ± 1.3
m1 = 0.0776 | 787.748 ± 0.34 | 1143.3 ± 1.3
m1 = 0.0873 | 790.137 ± 0.41 | 1144.5 ± 1.3
m1 = 0.099 | 793.601 ± 0.38 | 1146.2 ± 1.3
m1 = 0.1177 | 797.348 ± 0.37 | 1148.1 ± 1.3
m1 = 0.1424 | 803.296 ± 0.38 | 1150.9 ± 1.3
m1 = 0.3719 | 806.427 ± 0.29 | 1152.3 ± 1.3
m1 = 0.4973 | 811.456 ± 0.28 | 1154.5 ± 1.3
m1 = 0.5928 | 818.719 ± 0.28 | 1157.7 ± 1.3
m1 = 0.7044 | 824.988 ± 0.27 | 1160.3 ± 1.3
m1 = 0.8 | 829.74 ± 0.27 | 1162.3 ± 1.3

[Br-].[Li+] [lithium bromide] + CC(=O)N(C)C
[2], 323.15 K
Conditions | mass density [kg/m3] | speed of sound [m/s]
m1 = 0.0322 | 915.827 ± 0.19 | 1360.8 ± 1.3
m1 = 0.0511 | 917.401 ± 0.19 | 1362.5 ± 1.3
m1 = 0.0638 | 918.452 ± 0.19 | 1363.6 ± 1.3
m1 = 0.0978 | 921.232 ± 0.19 | 1366.4 ± 1.3
m1 = 0.1188 | 922.89 ± 0.19 | 1368.1 ± 1.3
m1 = 0.1475 | 925.178 ± 0.18 | 1370.3 ± 1.3
m1 = 0.2003 | 929.349 ± 0.18 | 1374.4 ± 1.3
m1 = 0.2472 | 933.065 ± 0.18 | 1378.2 ± 1.3
m1 = 0.3042 | 937.515 ± 0.17 | 1382.1 ± 1.3
m1 = 0.3988 | 944.893 ± 0.17 | 1389.2 ± 1.3
m1 = 0.4886 | 951.867 ± 0.16 | 1395.9 ± 1.3
m1 = 0.601 | 960.362 ± 0.15 | 1403.8 ± 1.3
m1 = 0.7053 | 968.26 ± 0.15 | 1411.4 ± 1.3
m1 = 0.9019 | 982.963 ± 0.14 | 1425.5 ± 1.3
m1 = 1 | 990.219 ± 0.13 | 1432.6 ± 1.3
m1 = 1.189 | 1004.06 ± 0.13 | 1446.1 ± 1.3
m1 = 1.327 | 1013.96 ± 0.13 | 1455.4 ± 1.3
